Structures can show the parent of a compound that is named as a salt. Where two headings read alike, the source gives them in different places.
Columns and labels:
[1] = system: acetic acid-induced colitis; settings: rat, in vivo; cited from earlier work
[2] = Job's plot stoichiometry of Fe(III) complexes; assay type: binding; settings: [DFT analog]+[Fe(III)]=1.0 mM, Tris-HCl pH 7.4; theoretical 0.667 for 2:1
Procedure: Solutions containing DFT analog/Fe(III) at different ratios were prepared such that [DFT analog]+[Fe(III)]=1.0 mM in Tris-HCl buffer at pH 7.4. The theoretical mole fraction maximum for a 2:1 DFT analog:Fe complex is 0.667 (indicated by an arrow).
In each instance, the DFT analogs formed 2:1 complexes with Fe(III). […] A 100 mM Tris HCl buffer was used to maintain the pH at 7.4. Solutions containing different DFT analog/Fe(III) ratios were prepared by mixing appropriate volumes of 1.0 mM DFT analog solution and 1.0 mM Fe(III)-nitriloacetate (NTA) in Tris-HCl buffer. The 1.0 mM Fe(III)-NTA solution was prepared immediately prior to use by dilution of a 41.6 mM Fe(III)-NTA stock solution with the Tris HCl buffer, whereas the DFT analog stock solution was prepared by dissolving the DFT analog as its monosodium salt in Tris HCl buffer at pH 7.4. The Fe(III)-NTA stock solution was prepared by mixing equal volumes of […] of FeCl3 and 180 mM trisodium NTA. The iron content of the Fe(III)-NTA solution was verified by atomic absorption spectrophotometry (AAS).

[3] = Compound-plasma binding, rodent plasma; assay type: in vitro ADME; settings: 37° C., 4 h, 3,000 MWCO filter
Excerpt: (§1) Each sample was then passed through a Millipore Amicon Ultra regenerated cellulose filter (3,000 MWCO).

urinary Kim-1 excretion [4] = settings: for survival of dosing period: po twice daily 237 μmol/kg/dose (474 μmol/kg/d), up to 7 d, rats with normal iron stores
Procedure: The compounds were administered to the rats po as their monosodium salts, prepared as described above, twice daily at a dose of 237 μmol/kg/dose (474 μmol/kg/d) for up to 7 d. The studies were performed on rats with normal iron stores. The rats were fasted overnight and were given the first dose of the compound first thing in the morning. The rats were fed ˜3 h post-dose and had access to food for ˜5 h before being fasted overnight.
The rats were housed in individual metabolic cages. […] A baseline (day 0) urine sample was collected and assessed for its Kim-1 content; each animal served as its own control. The urine was collected chilled as previously described (Bergeron et al., “Desferrithiocin Analog Iron Chelators: Iron Clearing Efficiency, Tissue Distribution, and Renal Toxicity.” Biometals, 2011, 24, 239-258).
The chilled urine was collected, vortexed, and warmed to room temperature; any sediment in the samples was allowed to settle. Kim-1 content was assessed using a Rat Kim-1 Rapid Test Kit according to the manufacturer's instructions. The result was read using a ReaScan Test Reader. […] Data are presented as the mean±the standard error of the mean; p-values were generated via a one-tailed Student's t-test in which the inequality of variances was assumed; and a p-value of <0.05 was considered significant.
Assessment of chelator-induced impaired renal function has traditionally relied on the detection of a rise in blood urea nitrogen (BUN) and/or serum creatinine (SCr). However, because of the functional reserve of the kidney, these parameters are often unreliable indicators of acute kidney injury; the ultimate answer requires histopathology. […] BioAssay Works has recently developed RenaStick, a direct lateral flow immunochromato-graphic assay, which allows for the rapid detection (less than 30 minutes) and quantitation of urinary Kim-1 (rat) or KIM-1 (human) excretion (Vaidya et al., “A Rapid Urine Test for Early Detection of Kidney Injury.” Kidney. Int. 2009, 76, 108-114). […] The studies were performed on rats with normal iron stores; each animal served as their own control.

[5] = Compound-plasma binding, primate plasma; assay type: in vitro ADME; settings: 37° C., 4 h, 3,000 MWCO filter
Excerpt: as §1

[6] = Octanol-water partition, shake flask (log Papp); assay type: physicochemical; settings: pH 7.4, Tris buffer
Procedure: The partition values between octanol and water (at pH 7.4, Tris buffer) were determined using a “shake flask” direct method of measuring log Papp values (Sangster et al., Octanol-Water Partition Coefficients: Fundamentals and Physical Chemistry; John Wiley and Sons: West Sussex, England, 1997; Vol. 2). The fraction of compound in the octanol is then expressed as log Papp. […] This is likely due to the presence of the aromatic nitrogen, a moderately good hydrogen bond accepter, on the DFT analogs.

iron excretion [7] = settings: po 150 μmol/kg, cited from earlier work
[8] = po once daily 384 μmol/kg/d (100 mg/kg/d), cited from earlier work
iron excretion [9] = settings: po 150 μmol/kg, cited from earlier work; remark: listed apart in the source
[10] = oral; cited from earlier work
iron excretion [11] = experiment: Iron-clearing efficiency in iron-overloaded primates (fecal and urine samples); assay type: in vivo, Cebus apella monkeys; settings: primates po / rodents po
Procedure: At least 20 half-lives, 60 days (Wood et al., “The Metabolism of Iron-Dextran Given As a Total-Dose Infusion to Iron Deficient Jamaican Subjects.” Br. J. Hamaetol. 1968, 14, 119-129), elapsed before any of the animals were used in experiments evaluating iron-chelating agents.
Briefly, the collections began 4 days prior to the administration of the test compound and continued for an additional 5 days after the compound was given. Iron concentrations were determined by flame absorption spectroscopy as presented in other publications (Bergeron et al., “A Comparative Evaluation of Iron Clearance Models.” Ann. N.Y. Acad. Sci. 1990, 612, 378-393; Bergeron et al., “Synthesis and Biological Evaluation of Naphthyldesferrithiocin Iron Chelators.” J. Med. Chem. 1996, 39, 1575-1581).
In the text below, the term “iron-clearing efficiency” (ICE) is used as a measure of the amount of iron excretion induced by a chelator. The ICE, expressed as a percent, is calculated as (compound-induced iron excretion/theoretical iron excretion)×100. To illustrate, the theoretical iron excretion after administration of one millimole of desferrioxamine B mesylate (DFO) (FIG. 3), a hexadentate chelator that forms a 1:1 complex with Fe(III), is one milli-g-atom of iron. Two millimoles of desferrithiocin (DFT) (Table 1), a tridentate iron chelator that forms a 2:1 complex with Fe(III), are required for the theoretical excretion of one milli-g-atom of iron. The theoretical iron outputs of the chelators were generated on the basis of a 2:1 compound:iron complex. The efficiencies in the rats and monkeys were calculated as set forth elsewhere (Bergeron et al., “Effects of C-4 Stereochemistry and C-4′ Hydroxylation on the Iron Clearing Efficiency and Toxicity of Desferrithiocin Analogs.” J. Med. Chem. 1999, 42, 2432-2440; Bergeron et al., “HBED: A Potential Alternative to Deferoxamine for Iron-Chelating Therapy.” Blood 1998, 91, 1446-1452).

urinary Kim-1 excretion [12] = settings: cited from earlier work; for urinary Kim-1: 237 μmol/kg twice daily
[13] = administered twice daily; cited from earlier work
[14] = po twice daily 237 μmol/kg/dose × 7 d
[15] = day 8, after 237 μmol/kg twice daily × 7 d

SMILES: CC(=O)N(O)CCCCCNC(=O)CCC(=O)N(O)CCCCCNC(=O)CCC(=O)N(O)CCCCCN [DFO, desferrioxamine B mesylate]
- effect on acetic acid-induced colitis [1]: prevent acetic acid-induced colitis

SMILES: COCCOCCOc1ccnc(C2=N[C@@](C)(C(=O)O)CS2)c1O [I-3, (S)-4,5-Dihydro-2-[3-hydroxy-4-(3,6-dioxaheptyloxy)-2-pyridinyl]-4-methyl-4-thiazolecarboxylic Acid]
- observed mole fraction maximum in Job's plot [2]: 0.677
- binding of the compound to plasma [3]: little, if any, binding
- survival of dosing period (urinary Kim-1 excretion [4]): All of the animals survived the compound dosing regimen
- BUN and SCr (urinary Kim-1 excretion [4]; [14]): well within the normal range
- urinary Kim-1 excretion versus baseline (day 0) (urinary Kim-1 excretion [4]; [14]): remained within error of that of the baseline (day 0) levels
- renal toxicity (Kim-1, BUN, SCr), summary (urinary Kim-1 excretion [4]; rat, in vivo): little to no impact on renal function
- binding of the compound to plasma [5]: little, if any, binding
- LogPapp [6]: −1.38

SMILES: C[C@]1(C(=O)O)CSC(c2ncccc2O)=N1 [compound 1, desferrithiocin]
- Primate Iron-Clearing Efficiency (%) (iron excretion [7]): 16.1±8.5%
- relative percentages of the iron excreted in the feces and urine (iron excretion [7]; primates, feces/urine): 78/22
- mortality ([8]; planned 10-d, rats with normal iron stores): All of the rats were dead by day 5
- nephrotoxicity [8]: severely nephrotoxic
- Rodent Iron-Clearing Efficiency (%) (iron excretion [9]; solubilized in 40% Cremophor RH-40/water): 5.5±3.2%
- relative percentages of the iron excreted in the bile and urine (iron excretion [9]; rodents, 40% Cremophor RH-40/water, bile/urine): 93/7
- fold increase of urinary Kim-1 over baseline (urinary Kim-1 excretion [4]; after one day, 237 μmol/kg/dose twice daily po): ~10 fold
- survival of dosing period (urinary Kim-1 excretion [4]): None of the rats survived
- SCr (urinary Kim-1 excretion [4]; two moribund rats sacrificed after four days of 237 μmol/kg/dose twice daily, normal 0.4-1): 5.1 ± 0.3 mg/dL
- BUN (urinary Kim-1 excretion [4]; two moribund rats sacrificed after four days of 237 μmol/kg/dose twice daily, normal 9-30): 139 ± 8 mg/dL
- nephrotoxicity [10]: severe nephrotoxicity
- LogPapp [6]: −1.77
- Performance ratio (PR), mean ICEprimates/ICErodents (iron excretion [11]): 2.9

SMILES: C[C@]1(C(=O)O)CSC(c2ccc(O)cc2O)=N1 [compound 3]
- urinary Kim-1 (urinary Kim-1 excretion [12]; after three days): 69±47 ng/kg/24 h
- BUN (urinary Kim-1 excretion [12]; [15]): 32 ± 13 mg/dL
- SCr (urinary Kim-1 excretion [12]; [15]): 1.3 ± 1.0 mg/dL
- urinary Kim-1 (urinary Kim-1 excretion [12]; end of the 7 d dosing period): 189±187 ng/kg/24 h
- renal toxicity (Kim-1, BUN, SCr), summary (urinary Kim-1 excretion [12]; rats): some nephrotoxicity
- LogPapp [6]: −1.05
- nephrotoxicity in patients [13]: induced proximal tubule nephrotoxicity

Reference: patent publication US10010535B2, “Desferrithiocin analogs and uses thereof” (University of Florida Research Foundation, Incorporated, priority 2013, dated 2018)
